This passage reports IC50 results from US11319283B2, “Substituted cyclobutylbenzene compounds as indoleamine 2,3-dioxygenase (IDO) inhibitors” (MERCK SHARP & DOHME CORP., priority 2017, dated 2022).

Bounds are passed on as bounds.

What all share (format): cell-based
One assay deals with T1, TDO (Homo sapiens, UniProt P48775).
T1 construct: endogenous in cells; host or cells: SW48 cells (A2780 cells as control with minimal TDO activity)
The experiment in a line: TDO Cellular Assay in Frozen SW48 Cells. The settings on record: 300 uM L-tryptophan, about 48 hours, fluorescence readout. In short, it runs like this: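 SW48 cells in RPMI with 300 uM L-tryptophan were incubated ~48 h at 37° C with compounds in ten 3-fold dilutions. Signal was corrected for A2780 background and normalised to DMSO-only SW48 wells, with IC50 from a four-parameter logistic fit.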

Assay [1] addresses T2, IDO1 (Homo sapiens, UniProt P14902). The experiment in a line: IDO1 HEK293 Cellular Assay. The settings on record: HEK293 cells transfected with Flag-IDO1 vector, 20-24 hours, fluorescence readout. The procedure: IDO1 HEK293 Cellular Assay
Compounds to be tested were serially diluted in ten 3-fold steps in DMSO starting from 10 mM DMSO stocks. Compound dilutions or DMSO alone were then dispensed from the dilution plate into a Greiner black 384-well assay plate (catalog #781086) using an Echo 550 acoustic liquid handler (Labcyte).
HEK293 cell pellets were resuspended to 5×10^5 cells/mL in complete HEK293 culture media (89% DMEM, 10% FBS, 1% penicillin/streptomycin). Suspended cells (2 mL) were dispensed into each well of a 6-well Corning plate (Catalog #3516). Cells were allowed to attach and were incubated for 20 hours at 37° C. in a 5% CO2 incubator. Flag-IDO1 vector (Genscript True ORF Gold, 2 ug) in 150 uL of Opti-MEM medium was added to each well of a Corning 24 well plate (Cat #3527) and incubated for 5 minutes at room temperature. To each well of the 24-well plate was added […] Lipofectamine 2000 (Gibco) and the plate incubated at room temperature for 20-30 minutes. To each well of attached cells in the 6-well plate, […] of the transfection mix from the 24-well plate was gently added to each well and IDO1 protein was allowed to express for 24-30 hours at 37 degrees Celsius in a 5% CO2 incubator.
Media was removed from the cells which were then washed with 2 mL Dulbecco's phosphate-buffered saline (DPBS). After removal of DPBS, 0.5 mL of TrypLE (Gibco) was added and incubated at 5 minutes until cells lift from the surface of the wells. Complete HEK293 culture media (4 mL) was added to each well and cells were collected and pooled into a conical tube. Cells were pelleted at 200×g for 5 minutes and resuspended in an equal volume of complete DMEM medium. Cells were diluted to 4×10^5 cells per mL in complete HEK293 media. L-Tryptophan was added to give a final concentration of […]. The diluted transfected cells […] or nontransfected cells […] were dispensed into wells of Greiner black 384-well assay plates (catalog #781086) containing previously diluted compounds. The plate is briefly mixed and centrifuged at 200×g for 10 seconds to collect cells at the bottom of the plate. Plates were covered and incubated for 20-24 hours at 37 degrees C. in a 5% CO2 incubator. Afterwards […] of 0.5 M methyl isonipecotate in dimethyl sulfoxide was added to each well, mixed, sealed, and centrifuged at 500 rpm for 10 seconds. Plates were incubated at 37 degrees in a 5% CO2 incubator overnight to develop fluoresence. The plates are allowed to cool and then centrifuged for 1 minute at 1000×g. The resulting fluoresence was measured in an Envision plate reader (Perkin Elmer) with a 400/25 nm excitation filter and an 510/20 nm emission filter.
The fluoresence intensity of each well was corrected for the background observed in wells with untransfected cells and was expressed as a fraction of the intensity observed in wells of IDO1 transfected cells and DMSO only. Potencies were calculated by linear least squares fit to the four parameter logistic IC50 equation.

Assay [2] concerns the target T2, IDO1. The experiment in a line: IDO1 Cellular Assay in Hela Cells Stimulated with IFNγ. The arrangement: endogenous in cells; host or cells: HeLa cells stimulated with IFNγ (100 ng/mL). The conditions noted are these: Hela cells stimulated with IFNγ 100 ng/mL, 300 uM L-tryptophan, about 48 hours, fluorescence readout. In short, it runs like this: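 HeLa cells with 300 uM L-tryptophan, IFNγ-stimulated (unstimulated cells as max-effect control), exposed to compound (ten 3-fold dilutions) for about 48 h at 37 °C. IC50 by four-parameter logistic fit.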

Assay [3] concerns the target T2, IDO1. The experiment in a line: IDO1 Human Whole Blood Assay. The arrangement: from tissue; host or cells: human whole blood from healthy donors, stimulated with LPS and IFNγ. The conditions noted are these: LPS and IFNγ 100 ng/mL, overnight (18 h), kynurenine by LC/MS/MS. The procedure: IDO1 Human Whole Blood Assay
Compounds to be tested were serially diluted in ten 3-fold steps in DMSO starting from 10 mM. […] LPS and IFNγ was prepared in RPMI to a 10× of final conc. (1000 ng/mL), final concentration is 100 ng/mL.
Human whole blood was drawn in sodium heparin coated tubes from healthy internal donors. […] of blood was transferred to each of the wells of a v-bottom 96 well plate. […] of compound was transferred from intermediate dilution plate, and incubated for 15 min. 30 μL from stimulants was then transferred to blood and mixed thoroughly. Plate was covered with breathable membrane and incubated at 37° C. for overnight (18 h).
On day 2 isotope labeled standard of kynurenine and tryptophan was made in water at 10× concentration and […] was added to the blood at […] final concentration. The assay plates were centrifuged at 300×G for 10 min with no brake to separate plasma from red blood cells. […] of plasma samples was removed without disturbing red blood cells. Plasma was diluted with RPMI in 1:1 ratio and proteins were precipitated out with two volume of Acetonitrile. The plates was centrifuged at 4000×G for 60 min. 20 mL of supernatant was carefully transferred to a 384 well plate contain 40 mL of 0.1% formic acid in water and analyzed by LC/MS/MS.
LC/MS/MS analyses were performed using Thermo Fisher's LX4-TSQ Quantum Ultra system. This system consists of four Agilent binary high-performance liquid chromatography (HPLC) pumps and a TSQ Quantum Ultra triple quadruple MS/MS instrument. For each sample, […] were injected onto an Atlantis T3 column (2.1 mm×150 mm, […]) from Waters. The mobile phase gradient pumped at 0.8 mL/min was used to elute the analytes from the column at 25° C. […] Mobile phase A consisted of 0.1% formic acid in water. Mobile phase B consisted of 0.1% of formic acid in acetonitrile. Data was acquired in positive mode using a HESI interface. The operational parameters for the TSQ Quantum Ultra instrument were a spray voltage of 4000 V, capillary temperature of 380° C., vaporizer temperature 400° C., shealth gas 60 arbitrary units, Aux gas 20 arbitrary units, tube lens 85 and collision gas 1.2 mTorr. […] The peak area was integrated by Xcalibur Quan software. The ratios between the kynurenine generated in the reaction and 2D6-Kynurenine spiked-in internal standard were used to generate percentage inhibition and IC50 values. Compounds were titrated and IC50's were calculated by 4 parameter sigmoidal curve fitting formula.

T1 sequence (P48775 whole entry): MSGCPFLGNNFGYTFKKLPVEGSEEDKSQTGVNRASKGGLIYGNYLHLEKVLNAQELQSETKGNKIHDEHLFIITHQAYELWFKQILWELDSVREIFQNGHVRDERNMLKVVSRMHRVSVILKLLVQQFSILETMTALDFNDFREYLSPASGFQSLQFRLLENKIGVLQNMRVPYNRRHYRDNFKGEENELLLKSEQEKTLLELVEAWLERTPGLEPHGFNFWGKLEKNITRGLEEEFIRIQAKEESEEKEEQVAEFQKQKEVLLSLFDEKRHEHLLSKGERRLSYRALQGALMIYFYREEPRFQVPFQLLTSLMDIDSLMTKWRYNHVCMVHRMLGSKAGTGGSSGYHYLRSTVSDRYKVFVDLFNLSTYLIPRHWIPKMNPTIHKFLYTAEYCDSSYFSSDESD
T2 sequence (P14902 whole entry): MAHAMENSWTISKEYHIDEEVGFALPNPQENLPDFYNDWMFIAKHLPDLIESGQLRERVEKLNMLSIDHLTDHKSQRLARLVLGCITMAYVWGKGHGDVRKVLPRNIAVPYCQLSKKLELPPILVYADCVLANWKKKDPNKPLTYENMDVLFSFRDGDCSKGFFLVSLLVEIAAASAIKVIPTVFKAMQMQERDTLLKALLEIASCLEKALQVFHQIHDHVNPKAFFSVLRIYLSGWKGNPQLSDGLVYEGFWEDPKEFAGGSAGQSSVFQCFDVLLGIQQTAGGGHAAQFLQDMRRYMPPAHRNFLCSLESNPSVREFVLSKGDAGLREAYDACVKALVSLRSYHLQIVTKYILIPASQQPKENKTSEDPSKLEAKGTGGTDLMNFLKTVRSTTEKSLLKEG

Consider `O=C(Nc1ccc(C2(NC(=O)c3ncco3)CCC2)cc1)c1cccc(Cl)c1` [Example 12, N-(1-{4-[(3-chlorobenzene-1-carbonyl)amino]phenyl}cyclobutyl)-1,3-oxazole-2-carboxamide], for which the IC50 against TDO is 585 nM; at IDO1 [1], 16 nM; against IDO1 [2], 28 nM.
As to `O=C(Nc1ccc(C2(NC(=O)c3cscn3)CCC2)cc1)c1cccc(Cl)c1` [Example 14, N-(1-{4-[(3-chlorobenzene-1-carbonyl)amino]phenyl}cyclobutyl)-1,3-thiazole-4-carboxamide], the half-inhibitory concentration (IC50) against TDO is 1210 nM; at IDO1 [1], 23 nM; at IDO1 [2], 39 nM.
Regarding `O=C(Nc1ccc(C2(NC(=O)c3nccs3)CCC2)cc1)c1cccc(Cl)c1` [Example 15, N-(1-{4-[(3-chlorobenzene-1-carbonyl)amino]phenyl}cyclobutyl)-1,3-thiazole-2-carboxamide], the results for the half-inhibitory concentration (IC50) on TDO, against IDO1 [1] and against IDO1 [2] were 2510 nM, 14 nM and 53 nM, respectively.
`O=C(Nc1ccc(C2(NC(=O)c3ccc(Cl)cc3)CCC2)cc1)c1cncnc1` [Example 17, N-(4-{1-[(4-chlorobenzene-1-carbonyl)amino]cyclobutyl}phenyl)pyrimidine-5-carboxamide]: the IC50 at TDO is at least 10000 nM; on IDO1 [1], 125 nM; on IDO1 [2], 108 nM.
With `O=C(Nc1ccc(C2(NC(=O)c3cncnc3)CCC2)cc1)c1cccc(Cl)c1` [Example 18, N-(1-{4-[(3-chlorobenzene-1-carbonyl)amino]phenyl}cyclobutyl)pyrimidine-5-carboxamide], the half-maximal inhibitory concentration (IC50) against TDO is at least 10000 nM; at IDO1 [1], 92 nM; on IDO1 [2], 92 nM.
`O=C(Nc1ccc(C2(C(=O)Nc3ccc(F)cn3)CCC2)cc1CO)c1cccc(Cl)c1` [Example 85, 3-chloro-N-[4-{1-[(5-fluoropyridin-2-yl)carbamoyl]cyclobutyl}-2-(hydroxymethyl)phenyl] benzamide]: the figures for the 50% inhibitory concentration (IC50) on TDO, against IDO1 [3] and on IDO1 [2] were at least 10000 nM, 219 nM and 5 nM, respectively.
For `N#Cc1cccc(C(=O)Nc2ccc(C3(C(=O)Nc4ccc(Cl)nc4)CCC3)cc2)c1` [Example 88, N-(4-{1-[(6-chloropyridin-3-yl)carbamoyl]cyclobutyl}phenyl)-3-cyanobenzamide], the IC50 was at least 10000 nM at TDO, 57 nM against IDO1 [3] and 2 nM against IDO1 [2].

As a reminder, the IC50 is the concentration that inhibits the measured activity by half. Low values mean greater potency, high ones weaker potency.
